The structures appear in SMILES notation.

Test [1] can be described thus: Odor of permanently waved hair strands, rinse-off method (base: hair-cure agent). To be noted: rinse-off hair-cure agent, 5-min contact, table head 0.01 wt. % (text b103: 0.1 wt. %), each symbol = one test strand; for Odor rating vs blank, Day 1, pH 2-3 / Odor rating vs blank, Day 1, pH 4-5: Day 1, wet; for Odor rating vs blank, Day 2, pH 2-3 / Odor rating vs blank, Day 2, pH 4-5: Day 2, dry; for Odor rating vs blank, Day 3, pH 2-3 / Odor rating vs blank, Day 3, pH 4-5: Day 3, wet; for Odor rating vs blank, Day 4, pH 2-3 / Odor rating vs blank, Day 4, pH 4-5: Day 4, dry.

Test [2] is described as follows: Odor of permanently waved hair strands, leave-on method (base: conditioner). The following applies: for Odor rating vs blank, Day 1, pH 2-3 / Odor rating vs blank, Day 1, pH 4-5 / Odor rating vs blank, Day 2, pH 2-3 / Odor rating vs blank, Day 2, pH 4-5 / Odor rating vs blank, Day 3, pH 2-3 / Odor rating vs blank, Day 3, pH 4-5 / Odor rating vs blank, Day 4, pH 2-3 / Odor rating vs blank, Day 4, pH 4-5: test substance 0.01 wt. %; for Odor rating vs blank, Day 1, pH 2-3 / Odor rating vs blank, Day 1, pH 4-5: Day 1, wet; for Odor rating vs blank, Day 1, pH 2-3 / Odor rating vs blank, Day 2, pH 2-3 / Odor rating vs blank, Day 3, pH 2-3 / Odor rating vs blank, Day 4, pH 2-3: pH 2-3, each symbol = one test strand; for Odor rating vs blank, Day 1, pH 4-5 / Odor rating vs blank, Day 2, pH 4-5 / Odor rating vs blank, Day 3, pH 4-5 / Odor rating vs blank, Day 4, pH 4-5: pH 4-5, each symbol = one test strand; for Odor rating vs blank, Day 2, pH 2-3 / Odor rating vs blank, Day 2, pH 4-5: Day 2, dry; for Odor rating vs blank, Day 3, pH 2-3 / Odor rating vs blank, Day 3, pH 4-5: Day 3, wet; for Odor rating vs blank, Day 4, pH 2-3 / Odor rating vs blank, Day 4, pH 4-5: Day 4, dry. The method, then:
The test substances were tested on hair that had been freshly permanently waved. To this end, hair braids were cut into 2.5-cm pieces, bleached for 30 minutes and washed with perfume-free shampoo. To obtain fully odorless strands, the strands were then dipped three times into a mixture of isopropanol 25%/ethanol 25%/water 50%. The hair was kept for 24 hours in a conditioning room (20° C. at 85% relative humidity) and then cut to a weight of 2 g. This was followed by an odor test. Ten strands per post-treatment agent to be tested were wound onto rollers (diameter: 13 mm) and kept overnight in the conditioning room (20° C. at 85% relative humidity). The next morning, these strands were subjected to permanent waving.
Ten rollers holding 2 g of hair each were placed in a crystallizing dish and covered twice with 20 g of a commercial wave lotion, the rollers being turned over after the first 20 g to ensure uniform distribution. The rollers were then placed in a drier at 40° C. for 15 min, after which they were rinsed with water for 5 minutes namely for 2 min under running city water and for an additional 3 min by immersing them in water. The hair was then dabbed dry with a paper napkin. Afterward, the fixation was carried out with the aid of a commercial foam fixative. To this end, the rollers were immersed for 3 min in 500 mL of fixing solution. Excess fixing solution was then poured off, and the rollers were allowed to stand for an additional 7 minutes. They were then again rinsed with water for 5 min (see above) and dabbed dry with a paper napkin. Finally, the hair was detached from the roller and placed in a drier at 40° C. for 60 minutes.
To test the efficacy of the compounds as permanent wave post-treatment agents, the zinc salts and the corresponding zinc-free acids alone were incorporated at two different pH values into common cosmetic product bases. Zinc citrate (trizinc dicitrate) made soluble with a slight excess of citric acid was tested as the reference substance for a zinc salt without the odor-influencing counterion. The oxocarboxylic acids were used both as the sodium salts and in the form of their zinc salts. The pH values were then adjusted with citric acid or NaOH.
In the following example, 0.5 mL of a leave-on conditioner was massaged into the freshly permanently waved hair (2 g in each case), and after a contact time of 10 min the odor was evaluated by five test subjects (Table 1). In each case, the odor evaluation was performed on 3 test strands. The average values of the evaluation results are tabulated.
Each symbol stands for one test strand. • ◯=odor indistinguishable from that of blank • +=odor better than that of blank • ++=odor appreciably better than that of blank/odorless

Test [3] in a line: Various odor tests carried out on permanently waved hair (general statements). The following applies: sulfur odor of permanently waved hair; general statement.

In the case of `O=CC(=O)[O-].[Na+]` [Na glyoxylate], in test [1], the “Odor rating vs blank, Day 1, pH 2-3” value was “∘ ∘ ∘”; the “Odor rating vs blank, Day 1, pH 4-5” value is recorded as “∘ ∘ ∘”; the “Odor rating vs blank, Day 2, pH 2-3” value is reported as “+ ∘ +”; the “Odor rating vs blank, Day 2, pH 4-5” value is “+ ∘ +”. In test [1], the “Odor rating vs blank, Day 3, pH 2-3” value was “∘ ∘ +”; the “Odor rating vs blank, Day 3, pH 4-5” value was “+ + ∘”; the “Odor rating vs blank, Day 4, pH 2-3” value is reported as “∘ + +”; the “Odor rating vs blank, Day 4, pH 4-5” value is recorded as “∘ + +”. Further, in test [2], the “Odor rating vs blank, Day 1, pH 2-3” value is listed as “∘ + +”; the “Odor rating vs blank, Day 1, pH 4-5” value is listed as “∘ + ∘”; the “Odor rating vs blank, Day 2, pH 2-3” value is reported as “+ + ∘”; the “Odor rating vs blank, Day 2, pH 4-5” value is “+ + ∘”. Further, in test [2], the “Odor rating vs blank, Day 3, pH 2-3” value is “∘ ∘ +”; the “Odor rating vs blank, Day 3, pH 4-5” value is reported as “∘ + +”; the “Odor rating vs blank, Day 4, pH 2-3” value was “∘ + +”; the “Odor rating vs blank, Day 4, pH 4-5” value is “+ ∘ +”.
For the compound `CC(=O)CCC(=O)O` [levulinic acid, 4-oxopentanoic acid], in test [2] (pH 2-3 and pH 4-5, summary of Table 1), the “odor-reducing action (efficacy), in words” value is recorded as “some odor-reducing action in strong acids”. In addition, the “odor-reducing effect on permanently waved hair, in words” value in test [3] is “effective odor reducer”.
As for `CC(=O)C(=O)[O-].[Na+]` [Na pyruvate], in test [1], the “Odor rating vs blank, Day 1, pH 2-3” value is given as “∘∘ +”; the “Odor rating vs blank, Day 1, pH 4-5” value is “∘ + +”; the “Odor rating vs blank, Day 2, pH 2-3” value is “∘ + +”; the “Odor rating vs blank, Day 2, pH 4-5” value is recorded as “∘ + +”. In test [1], the “Odor rating vs blank, Day 3, pH 2-3” value is reported as “∘ + +”; the “Odor rating vs blank, Day 3, pH 4-5” value was “∘ + +”; the “Odor rating vs blank, Day 4, pH 2-3” value was “∘ + +”; the “Odor rating vs blank, Day 4, pH 4-5” value was “∘ + +”. For the same compound, in test [2], the “Odor rating vs blank, Day 1, pH 2-3” value was “+ ∘ +”; the “Odor rating vs blank, Day 1, pH 4-5” value is recorded as “∘ ∘ +”; the “Odor rating vs blank, Day 2, pH 2-3” value is on record as “∘ + ∘”; the “Odor rating vs blank, Day 2, pH 4-5” value was “∘ + ∘”. In addition, in test [2], the “Odor rating vs blank, Day 3, pH 2-3” value is on record as “∘ + +”; the “Odor rating vs blank, Day 3, pH 4-5” value is listed as “∘ + +”; the “Odor rating vs blank, Day 4, pH 2-3” value is recorded as “∘ + +”; the “Odor rating vs blank, Day 4, pH 4-5” value is on record as “+ + ∘”.
For `O=C([O-])CC(O)(CC(=O)[O-])C(=O)[O-].O=C([O-])CC(O)(CC(=O)[O-])C(=O)[O-].[Zn+2].[Zn+2].[Zn+2]` [Trizinc dicitrate, trizinc dicitrate], in test [1], the “Odor rating vs blank, Day 1, pH 2-3” value is recorded as “∘ ∘ ∘”; the “Odor rating vs blank, Day 1, pH 4-5” value is “∘ ∘ +”; the “Odor rating vs blank, Day 2, pH 2-3” value is given as “+ ∘ ∘”; the “Odor rating vs blank, Day 2, pH 4-5” value was “∘ + +”. Also, in test [1], the “Odor rating vs blank, Day 3, pH 2-3” value is recorded as “∘ ∘ +”; the “Odor rating vs blank, Day 3, pH 4-5” value was “∘ + +”; the “Odor rating vs blank, Day 4, pH 2-3” value was “∘ ∘ +”; the “Odor rating vs blank, Day 4, pH 4-5” value was “∘ + +”. Moreover, in test [2], the “Odor rating vs blank, Day 1, pH 2-3” value is “+ ∘ ∘”; the “Odor rating vs blank, Day 1, pH 4-5” value is on record as “∘ + +”; the “Odor rating vs blank, Day 2, pH 2-3” value is on record as “∘ + ∘”; the “Odor rating vs blank, Day 2, pH 4-5” value is “∘ + +”. In test [2], the “Odor rating vs blank, Day 3, pH 2-3” value is “∘ ∘ +”; the “Odor rating vs blank, Day 3, pH 4-5” value was “∘ + +”; the “Odor rating vs blank, Day 4, pH 2-3” value was “∘ + ∘”; the “Odor rating vs blank, Day 4, pH 4-5” value was “+ + +”.
Take `CC(=O)CCC(=O)[O-].[Na+]` [Na levulinate]: in test [1], the “Odor rating vs blank, Day 1, pH 2-3” value is given as “+ + +”; the “Odor rating vs blank, Day 1, pH 4-5” value was “+ ∘ +”; the “Odor rating vs blank, Day 2, pH 2-3” value is “+ + ∘”; the “Odor rating vs blank, Day 2, pH 4-5” value is “+ ∘ ∘”. Further, in test [1], the “Odor rating vs blank, Day 3, pH 2-3” value is reported as “∘ + +”; the “Odor rating vs blank, Day 3, pH 4-5” value is “+ ∘ ∘”; the “Odor rating vs blank, Day 4, pH 2-3” value is on record as “∘ ∘ +”; the “Odor rating vs blank, Day 4, pH 4-5” value is reported as “+ ∘ ∘”. In addition, in test [2], the “Odor rating vs blank, Day 1, pH 2-3” value was “+ + +”; the “Odor rating vs blank, Day 1, pH 4-5” value was “+ ∘ +”; the “Odor rating vs blank, Day 2, pH 2-3” value is listed as “+ + +”; the “Odor rating vs blank, Day 2, pH 4-5” value is “+ ∘ +”. For the same compound, in test [2], the “Odor rating vs blank, Day 3, pH 2-3” value was “∘ + +”; the “Odor rating vs blank, Day 3, pH 4-5” value was “+ + ∘”; the “Odor rating vs blank, Day 4, pH 2-3” value is listed as “+ + +”; the “Odor rating vs blank, Day 4, pH 4-5” value is “+ + +”.
With `CC(=O)C(=O)[O-].CC(=O)C(=O)[O-].[Zn+2]` [Zn pyruvate], in test [1], the “Odor rating vs blank, Day 1, pH 2-3” value was “∘ ∘ ∘”; the “Odor rating vs blank, Day 1, pH 4-5” value is reported as “∘ + ∘”; the “Odor rating vs blank, Day 2, pH 2-3” value is reported as “∘ ∘ ∘”; the “Odor rating vs blank, Day 2, pH 4-5” value is on record as “+ ∘ +”. For the same compound, in test [1], the “Odor rating vs blank, Day 3, pH 2-3” value is on record as “∘ ∘ ∘”; the “Odor rating vs blank, Day 3, pH 4-5” value was “∘ + +”; the “Odor rating vs blank, Day 4, pH 2-3” value was “∘ ∘ ∘”; the “Odor rating vs blank, Day 4, pH 4-5” value is recorded as “+ + +”. In test [2], the “Odor rating vs blank, Day 1, pH 2-3” value is on record as “∘ + ∘”; the “Odor rating vs blank, Day 1, pH 4-5” value was “+ + +”; the “Odor rating vs blank, Day 2, pH 2-3” value was “∘ ∘ ∘”; the “Odor rating vs blank, Day 2, pH 4-5” value is “+ + +”. Further, in test [2], the “Odor rating vs blank, Day 3, pH 2-3” value was “∘ ∘ ∘”; the “Odor rating vs blank, Day 3, pH 4-5” value is on record as “∘ + +”; the “Odor rating vs blank, Day 4, pH 2-3” value is given as “∘ ∘ ∘”; the “Odor rating vs blank, Day 4, pH 4-5” value was “+ + +”.
Consider `O=CC(=O)[O-].O=CC(=O)[O-].[Zn+2]` [Zn glyoxylate], for which, in test [1], the “Odor rating vs blank, Day 1, pH 2-3” value is listed as “∘ ∘ ∘”; the “Odor rating vs blank, Day 1, pH 4-5” value was “∘ + +”; the “Odor rating vs blank, Day 2, pH 2-3” value is on record as “∘ ∘ ∘”; the “Odor rating vs blank, Day 2, pH 4-5” value is given as “+ ∘ +”. In addition, in test [1], the “Odor rating vs blank, Day 3, pH 2-3” value is given as “∘ ∘ +”; the “Odor rating vs blank, Day 3, pH 4-5” value was “+ + ∘”; the “Odor rating vs blank, Day 4, pH 2-3” value is “∘ ∘ +”; the “Odor rating vs blank, Day 4, pH 4-5” value was “∘ + +”. For the same compound, in test [2], the “Odor rating vs blank, Day 1, pH 2-3” value was “∘ + +”; the “Odor rating vs blank, Day 1, pH 4-5” value is recorded as “+ ∘ ∘”; the “Odor rating vs blank, Day 2, pH 2-3” value is given as “∘ ∘ ∘”; the “Odor rating vs blank, Day 2, pH 4-5” value was “∘ + +”. In test [2], the “Odor rating vs blank, Day 3, pH 2-3” value is “∘ ∘ +”; the “Odor rating vs blank, Day 3, pH 4-5” value was “+ ∘ +”; the “Odor rating vs blank, Day 4, pH 2-3” value is given as “∘ ∘ +”; the “Odor rating vs blank, Day 4, pH 4-5” value is listed as “+ + ∘”.

(Values after patent US20080299062A1, “Use of Oxocarboxylic Acids-Containing Combinations for Deodorization” (priority 2004, published 2008).)
